Experimental data reported in patent publication US10509046B2, “Detection of indazole synthetic cannabinoids” (Randox Laboratories Limited, priority 2014, dated 2019).
Where a name gives a salt, the structure may show the parent alone.

System: AB-PINACA antibody (raised against immunogen 2 of Example 6)
Assay: AB-PINACA ELISA, final validated kit with Tracer-2 (Example 10), specificity
Format: binding
Conditions: for % Cross-Reactivity: AB-PINACA N-Pentanoic acid = 100
Experimental: A microtitre plates was precoated with AB-PINACA antibody (raised against immunogen 2 of Example 6). Pinaca derivative (antigen), if present in the sample competes with the horseradish peroxidase labelled AB-PINACA (enzyme labelled antigen, herein Tracer-2 of Example 8) for a limited number of antibody sites on the microtitre plate. After incubation at room temperature to allow a competition reaction to take place, the microtitre plate was washed to remove excess reagents. The enzyme substrate ([…]) was added. After an incubation period to allow maximum colour development, the colour reaction was stopped by the addition of acid. This produces a colour change from blue to yellow, and the absorbances are read at 450 nm. A standard curve was then constructed to determine the Pinaca derivative's concentration in the sample.
All reagents were left to reach room temperature (+15 to +25° C.) prior to use. In order to minimise edge effects microtitre plate was sealed with an adhesive plate sealer.
The assay was performed in duplicate. The following layout was used for a test plate where each box represents 2 wells.
• a) The following was pipetted into the appropriate wells of the microtitre plate:
• b) The microtitre plate was gently tapped plate from side to side for a few seconds. • c) The microtitre plate was covered with a plate sealer before incubating for 30 minutes at room temperature (+15 to +25° C.) in the dark. • d) The plate was inverted and the liquid was tapped out. • e) The plate was washed 6 times with diluted wash buffer (ensuring all wells were filled), over a 10-15 minute period. After the final wash the liquid was discarded and the plate was tapped onto lint free tissue paper until completely dry. • f) Immediately after washing, 125 μL of the one shot substrate II solution was pipetted into each well using a multichannel pipette. The microtitre plate was gently tapped from side to side and incubated for (20±2 minutes) at room temperature (+15 to +25° C.) in the dark. • g) The colour reaction was stopped by the addition of 100 μL of stop solution per well. A colour change from blue to yellow should be evident. • h) The optical density was measured at 450 nm within 10 minutes of stopping the colour reaction. The use of a 630 nm filter is recommended as the reference wavelength, if available. Standard Curve and Interpretation of Results • a) The mean absorbance of the standards, controls and samples were calculated. • b) The absorbances of standards against log10 (standard concentration) were plotted. • c) The control and sample concentrations were read from the standard curve. • d) To obtain concentrations for urine samples in ng/mL, the results were multiplied by 3 to take into account the dilution factor. • e) To obtain concentrations for whole blood samples in ng/mL, the results were multiplied by 4 to take into account the dilution factor. • f) It is recommended that a 4 parameter curve fit method is used when generating the standard curve. Limits of Detection

SMILES | % Cross-Reactivity [%] | Concentration of compounds that elicit a negative response at the indicated concentration [ng/mL]
CC(C)C(NC(=O)c1nn(CCCC(O)CF)c2ccccc12)C(N)=O (stereo not drawn) | 24.1 | 
CC(C)(C)C(NC(=O)c1nn(CCCCCO)c2ccccc12)C(N)=O (stereo not drawn) | 15.2 | 
CCCCCn1nc(C(=O)NC23CC4CC(CC(O)(C4)C2)C3)c2ccccc21 [3-OH AKB-48] | <1 | 
CCCCCn1cc(C(=O)NC23CC4CC(CC(O)(C4)C2)C3)c2ccccc21 [3-OH SDB-001] | <1 | 
CC(O)CCCn1nc(C(=O)NC(C(N)=O)C(C)C)c2ccccc21 (stereo not drawn) [4-Hydroxypentyl AB-PINACA, 1-(4-hydroxypentyl) AB-Pinaca] | 85.2 | 
CC(C)(C)C(NC(=O)c1nn(CCCCCF)c2ccccc12)C(N)=O (stereo not drawn) [5-Fluoro ADB-PINACA] | 9.8 | 
CC(C)(C)C(NC(=O)c1cn(CCCCCF)c2ccccc12)C(N)=O (stereo not drawn) [5-Fluoro ADBICA] | 4.7 | 
O=C(O)c1cn(CCCCCF)c2ccccc12 [5-fluoro PB-22 3-carboxyindole] |  | 100
O=C(Oc1cccc2cccnc12)c1cn(CCCCCF)c2ccccc12 [5-fluoro PB-22] |  | 100
O=C(O)CCCCn1cc(C(=O)C23CC4CC(CC(C4)C2)C3)c2ccccc21 [AB001 N-Pentanoic Acid] |  | 100
O=C(c1cn(CCCCCO)c2ccccc12)C12CC3CC(CC(C3)C1)C2 [AB-001 N-Pentanol] | <1 | 
CC(C)[C@H](NC(=O)c1nn(CC2CCCCC2)c2ccccc12)C(N)=O [AB-CHMINACA] | 3.8 | 
CC(C)C(NC(=O)c1nn(Cc2ccc(F)cc2)c2ccccc12)C(=O)O (stereo not drawn) [AB-FUBINACA carboxylic acid] | 4.5 | 
CCCCCn1nc(C(=O)NC(C(=O)O)C(C)C)c2ccccc21 (stereo not drawn) [AB-PINACA carboxylic acid] | <1 | 
CC(C)(C)C(NC(=O)c1nn(CCCCC(=O)O)c2ccccc12)C(N)=O (stereo not drawn) [ADB-PINACA pentanoic acid metabolite] | 32.8 | 
CCCCCn1cc(C(=O)NC(C(N)=O)C(C)(C)C)c2ccccc21 (stereo not drawn) [ADBICA] | 0.7 | 
CC(O)CCCn1nc(C(=O)NC23CC4CC(CC(C4)C2)C3)c2ccccc21 (stereo not drawn) [AKB48 N-(4-hydroxypentyl) metabolite] | <1 | 
O=C(NC12CC3CC(CC(C3)C1)C2)c1nn(CCCCCO)c2ccccc12 [AKB48 N-(5-hydroxypentyl) metabolite] | <1 | 
O=C(O)CCCCn1nc(C(=O)NC23CC4CC(CC(C4)C2)C3)c2ccccc21 [AKB48 N-Pentanoic acid metabolite] | <1 | 

SMILES | % Cross-Reactivity [%] | Concentration of compounds that elicit a negative response at the indicated concentration [ng/mL]
O=C(c1ccccc1I)c1cn(CCCCCF)c2ccccc12 [AM-694] |  | 100
O=C(c1cccc2ccccc12)c1cn(CCCCCF)c2cc(O)ccc12 [AM-2201 6-Hydroxyindole] |  | 100
O=C(c1cccc2ccccc12)c1cn(CCCCCF)c2ccccc12 [AM-2201] |  | 100
N#CCCCCn1cc(C(=O)c2cccc3ccccc23)c2ccccc21 [AM-2232] |  | 100
O=C(O)c1cn(CC2CCCCC2)c2ccccc12 [BB-22 3-Carboxyindole metabolite] |  | 100
O=C(Oc1cccc2cccnc12)c1cn(CC2CCCCC2)c2ccccc12 [BB-22] |  | 100
CC1(C)C(C(=O)c2cn(CC3CCOCC3)c3ccccc23)C1(C)C [Hapten A-834735] |  | 100
COc1ccccc1CC(=O)c1cn(CCCC(C)O)c2ccccc12 (stereo not drawn) [JWH 250 N-(4-hydroxypentyl) metabolite] |  | 100
CCCCCn1c(C)c(C(=O)c2cccc3ccccc23)c2ccccc21 [JWH-007] |  | 100
CCCn1c(C)c(C(=O)c2cccc3ccccc23)c2ccccc21 [JWH-015] |  | 100
CCCCCn1cc(C(=O)c2cccc3ccccc23)c2c(O)cccc21 [JWH-018 4-Hydroxyindole] |  | 100
CCCCCn1cc(C(=O)c2cccc3ccccc23)c2cc(O)ccc21 [JWH-018 5-Hydroxyindole] |  | 100
CCCCCn1cc(C(=O)c2cccc3ccccc23)c2ccc(O)cc21 [JWH-018 6-Hydroxyindole] |  | 100
O=C(c1cccc2ccccc12)c1cn(CCCCCO)c2ccccc12 [JWH-018 N-(5-Hydroxypentyl)] |  | 100
O=C(O)CCCCn1cc(C(=O)c2cccc3ccccc23)c2ccccc21 [JWH-018 N-Pentanoic acid] |  | 100
CCCCCn1cc(C(=O)c2cccc3ccccc23)c2ccccc21 [JWH-018] |  | 100
CCCCCCn1cc(C(=O)c2cccc3ccccc23)c2ccccc21 [JWH-019] |  | 100
CCCCn1cc(C(=O)c2cccc3ccccc23)c2c(O)cccc21 [JWH-073 4-Hydroxyindole] |  | 100
CCCCn1cc(C(=O)c2cccc3ccccc23)c2cc(O)ccc21 [JWH-073 5-Hydroxyindole] |  | 100

SMILES | % Cross-Reactivity [%] | Concentration of compounds that elicit a negative response at the indicated concentration [ng/mL]
O=C(O)CCCn1cc(C(=O)c2cccc3ccccc23)c2ccccc21 [JWH-073 N-Butanoic acid] |  | 100
O=C(c1cccc2ccccc12)c1cn(CCCCO)c2ccccc12 [JWH-073 N-Butanol] |  | 100
CCCCn1cc(C(=O)c2cccc3ccccc23)c2ccccc21 [JWH-073] |  | 100
CCCCCn1cc(C(=O)c2ccc(OC)c3ccccc23)c2ccccc21 [JWH-081] |  | 100
O=C(c1cccc2ccccc12)c1cn(CCN2CCOCC2)c2ccccc12 [JWH-200] |  | 100
CCCCCn1cc(C(=O)Cc2ccccc2Cl)c2ccccc21 [JWH-203] |  | 100
CCCCCn1cc(C(=O)c2ccc(CC)c3ccccc23)c2ccccc21 [JWH-210] |  | 100
COc1ccccc1CC(=O)c1cn(CCCCCC(=O)O)c2ccccc12 [JWH-250 N-(5-Carboxypentyl)] |  | 100
COc1ccccc1CC(=O)c1cn(CCCCCO)c2ccccc12 [JWH-250 N-(5-Hydroxypentyl)] |  | 100
CCCCCn1cc(C(=O)c2ccc(Cl)c3ccccc23)c2ccccc21 [JWH-398] |  | 100
CCCCCn1nc(C(=O)Nc2cccc3ccccc23)c2ccccc21 [MN-18] | <1 | 
COc1cccc2c(C(=O)N[C@@H]3C(C)(C)[C@@H]4CC[C@@]3(C)C4)cn(CCN3CCOCC3)c12 [MN-25] | <1 | 
CN(C)C(=N)N=C(N)N [Metformin HCl] |  | 10000
CCCCCn1cc(C(=O)Nc2cccc3ccccc23)c2ccccc21 [NNEI] |  | 100
CCCCCn1cc(C(=O)O)c2ccccc21 [PB-22 3-Carboxyindole metabolite] |  | 100
O=C(Oc1cccc2cccnc12)c1cn(CCCCCO)c2ccccc12 [PB-22 N-(5-hydroxypentyl) metabolite] | <1 | 
O=C(O)CCCCn1cc(C(=O)Oc2cccc3cccnc23)c2ccccc21 [PB-22 N-Pentanoic acid] | <1 | 
CCCCCn1cc(C(=O)Oc2cccc3cccnc23)c2ccccc21 [PB-22] |  | 100
CC(C)NCC(O)COc1cccc2ccccc12 (stereo not drawn) [Propranolol HCL] |  | 10000
